From the NIST ThermoML archive (doi:10.1016/j.fluid.2014.09.014)

Test: refractive index (other wavelength) (dimensionless); xn = mol fraction of the nth substance listed
Conditions: 101 kPa, Liquid, Standard Abbe refractometry

CC(C)OC(C)C [diisopropyl ether] + CC(C)O
refractive index
Conditions | Wavelength=404.7 nm | Wavelength=435.8 nm | Wavelength=486.1 nm | Wavelength=546.1 nm | Wavelength=587.6 nm | Wavelength=589.3 nm | Wavelength=632.8 nm | Wavelength=644 nm | Wavelength=706.5 nm
293.5 K, x1 = 0.0277 | 1.388 | 1.38493 | 1.38147 | 1.3786 | 1.37708 | 1.37703 | 1.37572 | 1.37541 | 1.37391
293.5 K, x1 = 0.0507 | 1.3879 | 1.38485 | 1.38137 | 1.3785 | 1.37699 | 1.37693 | 1.37562 | 1.37531 | 1.37381
293.5 K, x1 = 0.051 | 1.38799 | 1.38492 | 1.38146 | 1.37859 | 1.37708 | 1.37702 | 1.3757 | 1.37539 | 1.37389
293.5 K, x1 = 0.0717 | 1.38774 | 1.38468 | 1.38121 | 1.37834 | 1.37683 | 1.37678 | 1.37545 | 1.37515 | 1.37366
293.5 K, x1 = 0.1528 | 1.38719 | 1.38413 | 1.38066 | 1.37779 | 1.37629 | 1.37623 | 1.37492 | 1.37461 | 1.37313
293.5 K, x1 = 0.1553 | 1.38719 | 1.38413 | 1.38066 | 1.37779 | 1.37629 | 1.37623 | 1.37492 | 1.37461 | 1.37313
293.5 K, x1 = 0.1938 | 1.38688 | 1.38381 | 1.38034 | 1.37747 | 1.37597 | 1.37591 | 1.37461 | 1.3743 | 1.37281
293.5 K, x1 = 0.2029 | 1.38669 | 1.38364 | 1.38016 | 1.3773 | 1.3758 | 1.37574 | 1.37443 | 1.37411 | 1.37263
293.5 K, x1 = 0.245 | 1.3865 | 1.38325 | 1.37977 | 1.37692 | 1.37541 | 1.37536 | 1.37405 | 1.37374 | 1.37227
293.5 K, x1 = 0.297 | 1.38605 | 1.383 | 1.37951 | 1.37666 | 1.37514 | 1.37509 | 1.37378 | 1.37347 | 1.372
293.5 K, x1 = 0.2973 | 1.38627 | 1.3832 | 1.37973 | 1.37687 | 1.37535 | 1.3753 | 1.374 | 1.3737 | 1.37222
293.5 K, x1 = 0.3068 | 1.38571 | 1.38264 | 1.37919 | 1.37631 | 1.37481 | 1.37475 | 1.37345 | 1.37314 | 1.37167
293.5 K, x1 = 0.398 | 1.38461 | 1.38154 | 1.37808 | 1.37522 | 1.37371 | 1.37366 | 1.37236 | 1.37206 | 1.37061
293.5 K, x1 = 0.4609 | 1.38404 | 1.38098 | 1.37753 | 1.37466 | 1.37315 | 1.3731 | 1.3718 | 1.3715 | 1.37005
293.5 K, x1 = 0.5434 | 1.38333 | 1.38026 | 1.37682 | 1.37395 | 1.37246 | 1.3724 | 1.37111 | 1.37078 | 1.36934
293.5 K, x1 = 0.6032 | 1.38277 | 1.37972 | 1.37624 | 1.3734 | 1.37188 | 1.37182 | 1.37052 | 1.37023 | 1.36879
293.5 K, x1 = 0.6371 | 1.3824 | 1.37934 | 1.37588 | 1.37304 | 1.37152 | 1.37146 | 1.37017 | 1.36988 | 1.36844
293.5 K, x1 = 0.701 | 1.38179 | 1.37873 | 1.37528 | 1.37243 | 1.37093 | 1.37087 | 1.36958 | 1.36928 | 1.36784
293.5 K, x1 = 0.754 | 1.38141 | 1.37834 | 1.3749 | 1.37205 | 1.37055 | 1.37049 | 1.3692 | 1.36891 | 1.36746
293.5 K, x1 = 0.791 | 1.38107 | 1.37802 | 1.37455 | 1.37172 | 1.37022 | 1.37016 | 1.36887 | 1.36857 | 1.36713
293.5 K, x1 = 0.8296 | 1.38071 | 1.37766 | 1.37423 | 1.37135 | 1.36987 | 1.36982 | 1.36854 | 1.36824 | 1.3668
293.5 K, x1 = 0.8864 | 1.38051 | 1.37747 | 1.374 | 1.37116 | 1.36966 | 1.36961 | 1.36832 | 1.36802 | 1.36658
293.5 K, x1 = 0.8903 | 1.38011 | 1.37706 | 1.37363 | 1.37076 | 1.36928 | 1.36922 | 1.36795 | 1.36765 | 1.3662
293.5 K, x1 = 0.9113 | 1.37989 | 1.37684 | 1.37339 | 1.37055 | 1.36905 | 1.369 | 1.36771 | 1.36741 | 1.36598
293.5 K, x1 = 0.9547 | 1.37948 | 1.37645 | 1.37301 | 1.37015 | 1.36866 | 1.36861 | 1.36732 | 1.36702 | 1.36559
293.5 K, x1 = 0.973 | 1.37918 | 1.37614 | 1.37271 | 1.36984 | 1.36836 | 1.3683 | 1.36703 | 1.36673 | 1.36529
293.5 K, x1 = 0.9771 | 1.37921 | 1.37617 | 1.37274 | 1.36988 | 1.36839 | 1.36834 | 1.36706 | 1.36675 | 1.36532
293.5 K, x1 = 1 | 1.37888 | 1.37585 | 1.37241 | 1.36955 | 1.36806 | 1.36801 | 1.36674 | 1.36644 | 1.36501
298.15 K, x1 = 0.0277 | 1.38582 | 1.38277 | 1.37932 | 1.37648 | 1.37498 | – | – | – | –
298.15 K, x1 = 0.0507 | 1.38573 | 1.38268 | 1.37925 | 1.37639 | 1.37488 | – | – | – | –
298.15 K, x1 = 0.051 | 1.38574 | 1.38276 | 1.37929 | 1.37644 | 1.37491 | – | – | – | –
298.15 K, x1 = 0.0717 | 1.38551 | 1.38247 | 1.37903 | 1.37618 | 1.37468 | – | – | – | –
298.15 K, x1 = 0.1528 | 1.38491 | 1.38186 | 1.37841 | 1.37557 | 1.37406 | – | – | – | –
298.15 K, x1 = 0.1553 | 1.38491 | 1.38186 | 1.37841 | 1.37557 | 1.37406 | – | – | – | –
298.15 K, x1 = 0.1938 | 1.38463 | 1.38158 | 1.37814 | 1.3753 | 1.37379 | – | – | – | –
298.15 K, x1 = 0.2029 | 1.38436 | 1.38132 | 1.37787 | 1.37502 | 1.37351 | – | – | – | –
298.15 K, x1 = 0.245 | 1.38392 | 1.38088 | 1.37746 | 1.37462 | 1.37311 | – | – | – | –
298.15 K, x1 = 0.297 | 1.38349 | 1.38044 | 1.377 | 1.37426 | 1.37265 | – | – | – | –
298.15 K, x1 = 0.2973 | 1.38372 | 1.38067 | 1.37725 | 1.37439 | 1.37289 | – | – | – | –
298.15 K, x1 = 0.3068 | 1.38326 | 1.38023 | 1.37678 | 1.37394 | 1.37243 | – | – | – | –
298.15 K, x1 = 0.398 | 1.38211 | 1.37907 | 1.37562 | 1.37278 | 1.37127 | – | – | – | –
298.15 K, x1 = 0.4609 | 1.3815 | 1.37845 | 1.37502 | 1.37217 | 1.37067 | – | – | – | –
298.15 K, x1 = 0.5434 | 1.38067 | 1.37764 | 1.3742 | 1.37135 | – | – | – | – | –
298.15 K, x1 = 0.6032 | 1.3801 | 1.37707 | 1.37364 | 1.3708 | – | – | – | – | –
298.15 K, x1 = 0.6371 | 1.37972 | 1.37669 | 1.37328 | 1.37042 | – | – | – | – | –
298.15 K, x1 = 0.701 | 1.37906 | 1.37604 | 1.37261 | 1.36978 | – | – | – | – | –
298.15 K, x1 = 0.754 | 1.37868 | 1.37567 | 1.37225 | 1.3694 | – | – | – | – | –
298.15 K, x1 = 0.791 | 1.3783 | 1.37529 | 1.37188 | 1.36903 | – | – | – | – | –
298.15 K, x1 = 0.8296 | 1.37799 | 1.37498 | 1.37154 | 1.36872 | – | – | – | – | –
298.15 K, x1 = 0.8864 | 1.37775 | 1.37471 | 1.37132 | 1.36847 | – | – | – | – | –
298.15 K, x1 = 0.8903 | 1.37734 | 1.37434 | 1.3709 | 1.36807 | – | – | – | – | –
298.15 K, x1 = 0.9113 | 1.37711 | 1.37411 | 1.37068 | 1.36785 | – | – | – | – | –
298.15 K, x1 = 0.9547 | 1.37676 | 1.37367 | 1.37025 | 1.36742 | – | – | – | – | –
298.15 K, x1 = 0.973 | 1.37634 | 1.37334 | 1.36994 | 1.3671 | – | – | – | – | –
298.15 K, x1 = 0.9771 | 1.37629 | 1.3733 | 1.36986 | 1.36704 | – | – | – | – | –
298.15 K, x1 = 1 | 1.37607 | 1.37308 | 1.36965 | 1.36683 | – | – | – | – | –
